US20080108641A1, “Compounds for treating inflammatory disorders, demyelinating disdorders and cancers” (priority 2006, published 2008)
Read-outs that look alike come from different tables or passages of the source.

Experiments:
[1] = tested on: Experimental Autoimmune Encephalomyelitis (EAE); conditions: for mean clinical severity score: 20 mg/kg i.p. once a week
[2] = tested on: T-lymphocyte cells isolated from thymus; experiment: Cell proliferation, T-Cell + Con A ([3H]thymidine incorporation); assay type: cell-based, balb/c mice; conditions: Mus musculus
Procedure: T-lymphocyte cells isolated from thymus of balb/c mice weighing 17±1 g were used. Test compound and/or vehicle is incubated with the cells (4×10^6/ml) in the presence of 3 μg/mL Concanavalin A (Con A) in AIM-V medium pH 7.4 at 37° C. for 24 hours. [^3H]Thymidine (120 nM) was then added for an additional overnight incubation period. Thymidine incorporation was assessed by liquid scintillation counting. Compounds were screened at 10, 1, 0.1, 0.01 and 0.001 μM.
Test compound-induced suppression of cell proliferation by 50 percent or more (≧50%) relative to vehicle control response indicates significant inhibitory activity.

[3] = tested on: colorectal cancer cell lines (HT29 & HCT116); experiment: Microarray differential gene expression (CodeLink Human Whole Genome Bioarrays); assay type: cell-based
[4] = 20 mg/kg i.p. weekly for 4, 6 and 8 weeks

CCN(CC)CCNc1ccc2ncn3c4ccc(O)cc4c(=O)c1c23 [Symadex™]
mean clinical severity score ([1]; 4-week treatment cycle (n=14), starting mean 1.3, p 0.0001 vs control): 0.7
mean clinical severity score ([1]; 6 week treatment (n=3), control 1.3, p 0.009): 0.3
B-cell counts vs controls [1, 4]: no significant deviation from controls
CD4 and CD8 T-cell populations [1, 4]: Neither are CD4 or CD8 T-cell populations modulated
total T-cell counts vs vehicle control [1, 4]: no difference
disease course after drug withdrawal ([1]; 20 mg/kg i.p. weekly for 4 weeks, then 4 weeks vehicle, p 0.002 vs control): remained in stable disease
clinical scores / disease progression ([1]; 20 mg/kg i.p., 2 doses 72 hours apart, from 30 days post immunization (n=3), p 0.002 vs control): reversed the progression of disease and restored baseline clinical scores
clinical scores at end of treatment course ([1]; 20 mg/kg i.p., 8 consecutive weekly doses (n=3), p 0.0006 vs control): converges on baseline
time to clinical recovery from the start of treatment ([1]; 40 mg/kg i.p. once a week for 4 weeks): ≤ 2 weeks
clinical progress and pathological findings vs vehicle control ([1]; 20 and 40 mg/kg i.p. once a week for 4 weeks from day 40, p 0.004 (20 mg/kg), 0.001 (40 mg/kg)): profound and substantial change
inflammatory cells in chronic demyelinated plaques ([1]; after prolonged treatment): virtually no remaining inflammatory cells
endogenous remyelination ([1]; chronic-progressive model, after disease progression): effective in permitting endogenous remyelination
scores for meningeal inflammation and perivascular infiltration ([1]; treated groups vs vehicle controls, weekly dosing for 4 weeks): more severe in the treated groups than in vehicle controls
IC50 [2]: 14 nM
inhibition at 0.001 µM ([2]; read-out: % Growth Inhibition): 10%
inhibition at 0.01 µM ([2]; read-out: % Growth Inhibition): 44%
inhibition at 0.1 µM ([2]; read-out: % Growth Inhibition): 82%
inhibition at 1 µM ([2]; read-out: % Growth Inhibition): 103%
inhibition at 10 µM ([2]; read-out: % Growth Inhibition): 104%
number of down-regulated genes significantly represented in both cell types ([3]; array of 55,000 gene fragment accessions, cells grown at concentration): 271
MEAN FOLD CHANGE OVER CONTROL ([3]; gene ACYP1): −2.07
MEAN FOLD CHANGE OVER CONTROL ([3]; gene ADCYAP1): −21.74
MEAN FOLD CHANGE OVER CONTROL ([3]; gene ADH1C): −12.02
MEAN FOLD CHANGE OVER CONTROL ([3]; gene AGT): −22.71
MEAN FOLD CHANGE OVER CONTROL ([3]; gene ALG5): −2.71
MEAN FOLD CHANGE OVER CONTROL ([3]; gene ANAPC4): −1.92
MEAN FOLD CHANGE OVER CONTROL ([3]; gene APOA1): −13.15
MEAN FOLD CHANGE OVER CONTROL ([3]; gene ARL6IP): −2.29
MEAN FOLD CHANGE OVER CONTROL ([3]; gene ASAH2): −2.21
MEAN FOLD CHANGE OVER CONTROL ([3]; gene HAT1): −2.63
MEAN FOLD CHANGE OVER CONTROL ([3]; gene HMGB1): −1.97
MEAN FOLD CHANGE OVER CONTROL ([3]; gene HMMR): −2.94
MEAN FOLD CHANGE OVER CONTROL ([3]; gene HNF4A): −7.42
MEAN FOLD CHANGE OVER CONTROL ([3]; gene HNRPA2B1): −1.93
MEAN FOLD CHANGE OVER CONTROL ([3]; gene HSGT1): −2.08
MEAN FOLD CHANGE OVER CONTROL ([3]; gene HSPB2): −13.76
MEAN FOLD CHANGE OVER CONTROL ([3]; gene IBSP): −58.56
MEAN FOLD CHANGE OVER CONTROL ([3]; gene IL1RAP): −11.23
MEAN FOLD CHANGE OVER CONTROL ([3]; gene IL1RL1): −28.60
MEAN FOLD CHANGE OVER CONTROL ([3]; gene IL7R): −25.20
MEAN FOLD CHANGE OVER CONTROL ([3]; gene IL13RA2): −9.79
MEAN FOLD CHANGE OVER CONTROL ([3]; gene ITGA2B): −10.64
MEAN FOLD CHANGE OVER CONTROL ([3]; gene ITGA9): −27.91
MEAN FOLD CHANGE OVER CONTROL ([3]; gene ITGAE): −2.12
MEAN FOLD CHANGE OVER CONTROL ([3]; gene ITGB3BP): −2.73
MEAN FOLD CHANGE OVER CONTROL ([3]; gene ITSN1): −15.06
MEAN FOLD CHANGE OVER CONTROL ([3]; gene KCNJ12): −15.93
MEAN FOLD CHANGE OVER CONTROL ([3]; gene KCNJ15): −6.83
MEAN FOLD CHANGE OVER CONTROL ([3]; gene KCNQ2): −24.13
MEAN FOLD CHANGE OVER CONTROL ([3]; gene KIAA0089): −7.23
MEAN FOLD CHANGE OVER CONTROL ([3]; gene KIF2C): −2.52
MEAN FOLD CHANGE OVER CONTROL ([3]; gene KIF5A): −11.04
MEAN FOLD CHANGE OVER CONTROL ([3]; gene KLRG1): −24.24
MEAN FOLD CHANGE OVER CONTROL ([3]; gene KRT13): −3.34
MEAN FOLD CHANGE OVER CONTROL ([3]; gene LCP2): −11.85
MEAN FOLD CHANGE OVER CONTROL ([3]; gene LIMS2): −57.61
MEAN FOLD CHANGE OVER CONTROL ([3]; gene LNX): −87.48
MEAN FOLD CHANGE OVER CONTROL ([3]; gene LPAAT-E (first entry)): −11.94
MEAN FOLD CHANGE OVER CONTROL ([3]; gene LPAAT-E (second entry)): −2.40
MEAN FOLD CHANGE OVER CONTROL ([3]; gene LRP1B): −15.01
MEAN FOLD CHANGE OVER CONTROL ([3]; gene LTB): −12.57
MEAN FOLD CHANGE OVER CONTROL ([3]; gene MAD2L1): −3.14
MEAN FOLD CHANGE OVER CONTROL ([3]; gene MAP6): −12.89
MEAN FOLD CHANGE OVER CONTROL ([3]; gene MAPK13): −2.14
